{
  "source": "patent US20240309014A1",
  "about": "“MACROCYCLIC COMPOUNDS AND USES THEREOF” (President and Fellows of Harvard College, priority 2017, published 2024)",
  "key": {"[1]": {"tested_on": "U2OS-EB3-AG cells", "experiment": "Antiproliferative activity in U2OS-EB3-AG cells", "assay_type": "cell-based"}, "[2]": {"tested_on": "KPL-4 subcutaneous xenograft", "experiment": "KPL-4 xenograft model as monotherapy (FIG. 12)", "assay_type": "in vivo, nude mice", "protocol": "A human HER-2 positive breast cancer cell line KPL-4, which had been cultured in a DMEM containing 10% FBS, and penicillin-streptomycin, was adjusted to a concentration of 1×10^8 cells/mL with Hanks' Balanced Salt Solution to prepare a cell suspension. The cell suspension was inoculated in a volume of 100 μL into a subcutaneous part of a right flank of nude mice, 8 weeks of ages (CAnN.Cg-Foxnlnu/CrlCrlj, female, Charles River Laboratories Japan Inc.). Eleven days after cell inoculation (Day 1), the shortest diameter and the longest diameter of a tumor in each mouse were measured by using an electronic digital caliper (Digimatic™ caliper, Mitutoyo Corporation), so as to calculate the volume of the tumor in accordance with the following calculation formulae: […]\nOn the basis of the volumes of tumors obtained on Day 1, the mice were grouped such that averages of the tumor volumes were substantially equal among the groups. The experiment was conducted on groups each consisting of six mice. The test compound was dissolved in DMSO and a solution was stored in the freezer before use. Immediately before the administration, the stock solution was diluted with saline. The test compound in saline was intravenously once-weekly administered at 20 μg/kg, 60 μg/kg, or 180 μg/kg for 2 weeks (on Day 1 and Day 8)."}, "[3]": {"tested_on": "Tenascin-C and EDA-fibronectin", "experiment": "Effects on Tenascin-C and EDA-fibronectin in the FaDu subcutaneous model (FIG. 15)", "assay_type": "in vivo, nude mice", "conditions": "Compound (1) 180 μg/kg + cetuximab 10 mg/kg on Day 1, tumors five days after, vs control tumors", "protocol": "A human squamous cell carcinoma of the head and neck (SCCHN) cell line FaDu, which had been cultured in an RPMI-1640 medium containing 10% FBS, and penicillin-streptomycin (culture medium), was adjusted to a concentration of 5×10^7 cells/mL with culture medium to prepare a cell suspension. The cell suspension was inoculated in a volume of 100 μL into a subcutaneous part of a right flank of nude mice, 6 weeks of ages (CAnN.Cg-Foxnlnu/CrlCrlj, female, Charles River Laboratories Japan, Inc.). Ten days after cell inoculation, the mice were grouped such that averages of the tumor volumes were substantially equal among the groups. The experiment was conducted on groups each consisting of 5 mice. Compound (1) was dissolved in DMSO and a solution was stored in the freezer before use. […] Five days after the single administration, tumor samples were collected and fixed with IHC Zinc Fixative (BD Pharmingen) at 4° C. for 24 hr. Paraffin-embedded tissues were sectioned (3 μm), mounted on positively charged slides, and air-dried. Sections were deparaffinized, conditioned and the antigens were retrieved using microwave with 1 mM EDTA at pH 6.0 for Tenascin-C. For EDA-fibronectin, the antigens retrieval procedure was not necessary. […]"}, "[4]": {"tested_on": "BJ normal human fibroblasts stimulated with TGF-β", "experiment": "TGF-β-treated BJ cells, in vitro CAF-inducing system", "assay_type": "cell-based", "protocol": "FIG. 19A. BJ cells (normal human […] fibroblasts) were co-cultured with FaDu cells for three days in the absence (vehicle) or presence of A83-01, a potent selective TGF-β-R inhibitor, and the expression of α-SMA was analysed by immunofluorescence staining (red color). Samples were also stained with anti-pan-human cytokeratin (green color) for cancer cell staining and DAPI (blue color) for nuclear staining. FIGS. 19B-19E BJ cells were treated with Compound (1) (0.15 nmol/L in immunofluorescence staining data and indicated concentrations in western blot analysis data) and TGF-β for 2 days. FIGS. 19B-19E. Samples were stained with the indicated antibody (red color) and DAPI (blue color) for nuclear staining. FIG. 19E Western blot images and quantification of the images. […] FIGS. 19G and 19E BJ cells were pretreated with defactinib (1 μmol/L) and TGF-β for 2 days. The lens magnification used was x4 (FIGS. 19A, 19B, 19C, 19G, and 19H) or x40 (FIGS. 19D and 19E).\nFIGS. 20A and 20B. Quantification of immunofluorescence images of BJ cells treated with TGF-β(1 ng/mL) and the indicated concentrations of Compound (1) for α-SMA (FIG. 20A), Phospho-S6-ribosomal protein (Ser235/236) (FIG. 20B). FIG. 20C. Immunofluorescence analysis of BJ cells treated with TGF-β in the absence or presence of dactolisib, a phosphatidylinositol 3 kinase inhibitor. FIG. 20D. Immunofluorescence analysis of phosphorylated Smad⅔ in BJ cells pretreated with Compound (1) (72 hours) after 30 minutes of stimulation with TGF-β. Acetylated-α-tubulin was co-stained to confirm the activity of Compound (1). FIG. 20E. Western blot analysis of Smad⅔ in BJ cells treated with TGF-β and the indicated concentrations of Compound (1). The lens magnification used was x4 (FIG. 20C) or x40 (FIG. 20D).\nThe expression of α-SMA was induced in BJ normal human fibroblasts upon co-cultivation with FaDu cells, and the expression was attenuated by treatment with A83-01, a potent selective inhibitor of the TGF-β-receptor (FIG. 19A).\nUnder the same experimental conditions, the enhanced formation of focal adhesions, which were detected as punctate structures with an antibody against phosphorylated FAK at tyrosine-397, after stimulation with TGF-β was decreased in BJ cells by treatment with Compound (1) (FIG. 19E). Many signalling complexes are assembled in focal adhesion sites, and those complexes dispatch several downstream signals, including those involved in the PI3K/AKT/mTOR pathway. See, e.g., Sulzmaier et. al. “FAK in cancer: mechanistic findings and clinical applications”, Nature Reviews Cancer 2014, 14, 598-610."}},
  "data": [
    {"compound": "C=C1C[C@@H]2CC[C@@]34C[C@H]5O[C@H]6[C@@H](O3)[C@H]3O[C@H](CC[C@@H]3O[C@H]6C5O4)CC(=O)O[C@@H]3[C@@H](C)[C@@H]4O[C@@H]5C[C@]6(C[C@@H]7O[C@]8(C[C@H](C)[C@@H]9O[C@H](CN)[C@H](O)C[C@@H]9O8)C[C@H](C)[C@@H]7O6)O[C@@H]5C[C@@H]4O[C@H]3C[C@H]3O[C@@H](CC[C@@H]1O2)C[C@@H](C)C3=C", "note": "(stereo in doubt) [Compound (1)]", "values": [
      {"measurement": "IC50", "setting": "[1]", "value": 0.5, "unit": "nM"},
      {"measurement": "antitumor effect", "setting": "[2]; 60 μg/kg i.v. Day 1 and Day 8", "value": "tumor regression"},
      {"measurement": "antitumor effect", "setting": "[2]; 180 μg/kg i.v. Day 1 and Day 8", "value": "tumor regression"},
      {"measurement": "xenograft tumors on Day 15", "setting": "[2]; 180 μg/kg i.v. Day 1 and Day 8", "value": "completely eradicated the xenograft tumors in all mice"},
      {"measurement": "expression levels of Tenascin-C and ED-A fibronectin", "setting": "[3]", "value": "reduced"},
      {"measurement": "TGF-β-induced phosphorylation and nuclear localization of Smad⅔", "setting": "[4]; BJ cells", "value": "did not significantly change"},
      {"measurement": "enhanced formation of focal adhesions (phosphorylated FAK at tyrosine-397)", "setting": "[4]; BJ cells after stimulation with TGF-β", "value": "decreased"},
      {"measurement": "activation of the PI3K/AKT/mTOR pathway", "setting": "[4]; BJ cells treated with TGF-β", "value": "reduce the activation of the PI3K/AKT/mTOR pathway"},
      {"measurement": "TGF-β-enhanced P3-tubulin expression and microtubule network formation", "setting": "[4]; BJ cells, co-treatment with TGF-β", "value": "diminished"},
      {"measurement": "α-SMA induction by TGF-β", "setting": "[4]; BJ cells, immunofluorescence, 2 days", "value": "interfered with α-SMA induction by TGF-β in BJ cells without growth inhibitory activity"}
    ]}
  ]
}
